Legend:
[1] = system: NK cells; conditions: cited from earlier work
[2] = system: CD69 expression on T-cells; test: CD69 expression on T-cells incubated with or without autologous monocytes (MO), flow cytometry; format: cell-based, human
Description: To study the activation characteristics of T-cells in the presence and absence of MO, T-cell activation compounds, H2-receptor agonists, and H2O2 scavengers, peripheral venous blood was obtained as freshly prepared leukopacks from healthy blood donors at the Blood Centre, Sahlgren's Hospital, Göteborg, Sweden. The blood (65 ml) was mixed with 92.5 ml Iscove's medium, 35 ml 6% Dextran (Kabi Pharmacia, Stockholm, Sweden) and 7.5 ml acid citrate dextrose (ACD) (Baxter, Deerfield, Ill.). After incubation for 15 minutes at room temperature, the supernatant was carefully layered onto Ficoll-Hypaque (Lymphoprep, Myegaard, Norway). Mononuclear cells (MNC) were collected at the interface after centrifugation at 380 g for 15 minutes at room temperature, washed twice in PBS and resuspended in Iscove's medium supplemented with 10% human AB^+ serum. During all further separation of cells, the cell suspensions were kept in siliconized test tubes (Vacuette, Greiner, Stockholm).
The MNC were further separated into lymphocyte and monocyte (MO) populations using the counter-current centrifugal elutriation (CCE) technique originally described by Yasaka and co-workers (Yasaka, T. et al., J. Immunol., 127:1515) with modifications as described in Hansson, M., et al. (J. Immunol., 156: 42 (1996); hereby incorporated by reference). Briefly, the MNC were resuspended in elutration buffer containing 0.05% BSA and 0.015% EDTA in buffered NaCl and fed into a Beckman J2-21 ultracentrifuge with a JE-6B rotor at 2100 rpm. A fraction with >90% MO was obtained at a flow rate of 18 ml/min. A lymphocyte fraction enriched for NK-cells (CD3^−/56^+ phenotype) and T-cells (CD3^+/56^−) was recovered at flow rates of 14-15 ml/min. […] In some experiments, dynabeads (Dynal A/S, Oslo, Norway) coated with anti-CD56 were used to obtain purified lymphocyte preparations of T-cells, as described in detail by Hansson, M., et al., incorporated above.
Flow cytometry was used in the experiments described below to identify the various sub-populations of T-cells. Flow cytometry permits an investigator to examine a population of cells using a number of labeled probes to differentiate sub-populations within the larger whole. In these experiments, the CD3 marker was used to identify the subpopulation of T-cells and the CD4 and CD8 markers were used to further identify the subpopulation of T-cells into T helper cells and CTLs. The effects of MO exposure in the presence and absence of histamine and T-cell activation compounds were determined using the CD69 T-cell activation marker. The expression of the different markers was estimated in a lymphocyte gate using flow cytometry (as described in Hellstrand, K., et al. Cell. Immunol. 138: 44-54 (1991), and hereby incorporated by reference).
The following protocol was used in experiments reporting the detection of surface antigens of cell populations. One million cells were incubated with appropriate fluorescein isothiocynate (FITC) and phycoerythrin (PE) conjugated monoclonal antibodies (Becton & Dickinson, Stockholm, Sweden; 1:1/10^6 cells), on ice for 30 minutes. The cells were washed twice in PBS and resuspended in 500:1 sterile filtered PBS and analyzed by use of flow cytometry on a FACSort with a Lysys II software program (Becton & Dickenson). Lymphocytes were gated on the basis of forward and right angle scatter. The flow rate was adjusted to <200 cells×s^− and at least 5×10^3 cells were analyzed for each sample, if not otherwise stated.
Isolated peripheral blood lymphocytes (150,000 cells/well in a total volume of 0.2 ml) were incubated in microplates for 16 hours at 37° C. in the presence or absence of autologous MO.

[3] = system: T-cells and NK-cells; test: MO-induced cell death (apoptosis) of T-cells and NK-cells, flow cytometry; format: cell-based, human
Description: In this Example, apoptotic morphology of lymphocytes exposed to MO was monitored by staining cells with a dye mix containing acridine orange (10:g/ml; Sigma) and ethidium bromide (10:g/ml; Sigma), both prepared in phosphate buffered saline. One microliter (1:1) of dye mix was added to 25:1 of cells suspension (1-2×10^6/ml) in siliconized test tubes. Thereafter, 10:1 of the cell suspension was placed on a glass slide and immediately counted in a fluorescence microscope (Nikon) under times forty (×40) magnification with qualification of dead, living, apoptotic and non-apoptotic cells. (See Hellstrand, K., et al. J. Immunol., 153: 4940-4947 (1994); Hansson, M., et al., J. Immunol. 156:42-47 (1996)).
(See Hansson M., et al., supra). Cell death in lymphocytes was monitored by gating nonviable T-cells or NK-cells after exposure to MO, with and without histamine or catalase. A gate with reduced forward scatter and increased right angle scatter characteristic of apoptosis was employed in these studies. (See Hansson M., et al., supra; Mizgerd J. P., et al., J. Leukoc. Biol. 59:189 (1996); herein incorporated by reference; gate also described in Example 1).

[4] = system: CD3e+ T-cells and CD56+ NK-cells; conditions: cited from earlier work
[5] = molecular target: H2 receptor (Homo sapiens, UniProt P25021); conditions: cited from earlier work
Sequence of H2 receptor (P25021 whole entry): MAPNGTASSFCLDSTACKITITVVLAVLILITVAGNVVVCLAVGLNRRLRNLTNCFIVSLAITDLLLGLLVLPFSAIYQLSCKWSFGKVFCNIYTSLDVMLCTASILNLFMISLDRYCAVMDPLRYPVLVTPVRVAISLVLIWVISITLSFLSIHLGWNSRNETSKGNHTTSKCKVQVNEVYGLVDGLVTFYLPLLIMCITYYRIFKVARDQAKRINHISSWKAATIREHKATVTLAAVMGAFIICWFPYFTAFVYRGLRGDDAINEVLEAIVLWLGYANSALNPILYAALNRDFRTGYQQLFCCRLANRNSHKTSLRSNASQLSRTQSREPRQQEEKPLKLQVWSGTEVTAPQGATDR

[6] = system: herpes simplex virus (HSV); conditions: single dose of histamine; cited from earlier work
[7] = system: NK cells; conditions: absence of monocytes; cited from earlier work
[8] = system: lymphocytes; conditions: cited from earlier work
[9] = system: T-cell enriched lymphocytes; format: cell-based, human

CN(C)CCCSC(=N)N [dimaprit]
action on histamine's effect on granulocyte mediated suppression of NK cell antibody dependent cytotoxicity [1]: mimicked

IFN-α
change of IFN-α-induced CD69 in CD3e+ cells by the addition of MO ([2]; IFN-α, with vs. without MO): seemingly unchanged
induction of CD69 in CD3e+ cells ([2]; in response to IFN-α (100 U/ml)): ~10%
induction of CD69 in CD4+ cells compared with IL-2 ([2]; incubated without MO, p<0.01): less effective than IL-2
IFN-α induced level of CD69 on CD4+ cells when MO were added ([2]; with vs. without MO, p<0.05): significantly higher
effect of concomitant treatment on MO-induced cell death and on histamine protection ([3]; 100 U/ml): unaffected

OO [hydrogen peroxide]
concentration required to induce apoptosis in CD3e+ T-cells relative to CD56+ NK-cells [4]: Approximately 5 fold

CNC(=C[N+](=O)[O-])NCCOCc1ccc(CN(C)C)o1 [AH20399AA]
antagonism of the histamine response on cytokine-induced CD69 expression ([2]; equimolar or 10-fold lower concentrations than histamine): did not block
reversal of the histamine effect on MO-induced cell death ([3]; concentrations equimolar to 10-fold lower than histamine): not
reduction of affinity for the H2 receptor relative to ranitidine [5]: > 50 fold

catalase
effect on induction of CD69 in the absence of MO ([2]; absence of MO): did not affect
effect on MO-induced inhibition of cytokine-induced CD69 expression ([2]; catalase 10-200 U/ml, IL-2 100 U/ml, with MO): significantly reversed
effect of catalase alone on percentage of CD3+ cells expressing CD69 ([2]; catalase alone, 0 to 200 U/ml, with MO): little effect
percentage of CD3+ cells expressing the CD69 marker ([2]; with MO, IL-2 100 U/ml, catalase 200 U/ml): ~11%
mimicking of the histamine effect on MO-induced cell death [3]: mimicked

NCCc1c[nH]cn1 [histamine]
effect on CD69 expression in CD3+ and CD4+ T-cells incubated with IFN-α ([2]; MO present vs. absence of MO): enhanced the expression of CD69 to a significantly higher level
effect on MO-induced inhibition of IL-2 induced acquisition of CD69 in T-cells ([2]; histamine 50 :M, IL-2 100 U/ml, with MO): counteracted
effect on CD69 expression in non-stimulated or cytokine-activated T-cells ([2]; histamine 50 :M, incubated without MO): did not significantly alter
effect on CD69 expression in CD8+ cells activated with IFN-α ([2]; with MO): restored by histamine to the level observed in pure lymphocytes
ED50 of effect on cytokine-induced expression of CD69 in T-cells ([2]; with MO, histamine 0.1-50:M, dose-dependent): approximately 2 :M
survival time of HSV-inoculated animals [6]: prolong survival time
prevention of MO-induced cell death ([3]; all subsets of T-cells and NK-cells, histamine 50 :M, 16 hours): > 80%
effect on NK mediated cytotoxicity [7]: no effect or weakly suppressed
effect on lymphocyte proliferation in response to phytohemagglutinin or staphylococcal enterotoxin type A [8]: reduce the proliferation
effect on vaccine-induced proliferation [9]: strongly potentiated
proliferation of cells not treated with the vaccine [9]: slightly augmented

CNC(=C[N+](=O)[O-])NCCSCc1ccc(CN(C)C)o1 [ranitidine]
action on histamine's effect on granulocyte mediated suppression of NK cell antibody dependent cytotoxicity [1]: blocked

Source: patent US20030039628A1, “Activation and protection of T-cells (CD4+ and CD8+) using an H2 receptor agonist and other T-cell activating agents” (priority 1998, published 2003)
